Here are results for 2 molecules from US4143055A, “2,4,6-Trisubstituted-2,3-dihydro-benzofuran derivatives” (Gruppo Lepetit S.p.A., priority 1978, dated 1979).

Series [1] in a line: Acute oral toxicity in rats (LD50, Lichtfield and Wilcoxon). As to conditions: rat, in vivo, rats p.o. (table). The method, then:
The toxicities were determined according to Lichtfield and Wilcoxon, Journ. Pharm. Expt. Ther., 96, 99, 1949.

For series [2], the system named is carrageenin induced edema. Nature of the series: Carrageenin induced edema in the rat paw. The class given is in vivo. As to conditions: dosage around 1/5 of its LD50. The method, then:
(§1) The antiinflammatory activity was ascertained by means of several testing methods; in one, the ability of the compounds of the invention to reduce the edema induced in the rat paw by injection of carrageenin was evaluated and the test was performed according to the methodology described by C. A. Winter et al. in Proc. Soc. Exptl. Biol. Med. 111, 544, (1962). In another it was investigated the reduction by the test compounds of the weight of the granuloma formed on a cotton pellet implanted subcutaneously in a rat, following the method described by Meier et al. in Experientia 6, 469, (1950).
(§2) Representative experiments have shown that the compounds of Example 11, namely 2,3-dihydro-6-methoxy-N,2-dimethyl-4-benzofuranamine causes a reduction of the carrageenin induced edema of around 70 percent over the controls even when it is administered at an absolutely safe dosage i.e., around 1/5 of its LD50. In the granuloma cotton pellet test the same compound at the same dosage reduces the weight of the granuloma of more than 40 percent again over the controls.
Background: Carrageenan injected into the paw causes an acute inflammation.

For series [3], the system named is granuloma formed on a cotton pellet implanted subcutaneously. Nature of the series: Granuloma cotton pellet test. Conditions: rat; same dosage, around 1/5 of its LD50. Format: in vivo. The method, then: as §1, §2
Series [4] has as its system adjuvant induced arthritis. The series can be described thus: Adjuvant induced arthritis test in rats. Format: in vivo. Conditions: for % reduction of the volume of the hind paws over the controls: rats p.o., Dose 200 mg/kg. The source says:
However, the most important pharmacological aspect of the compounds of the present invention is that they are effective also in the adjuvant induced arthritis test in rats. Said test is absolutely meaningful in that adjuvant arthritis is one of the best pharmacological parameters with which a pharmacologist can investigate compounds as to their possible antinflammatory activity, owing to the parallelism of effects existing between it and some articulation diseases observed in humans (see Pearson, C. M., Arthritis and allied conditions, page 119, Lea and Febiger Publ., 1967 and Pearson, C. M., J. Chronic Diseases, 16, 863, 1963).
The adjuvant induced arthritis test was performed as described by B. B. Newbould in Brit. Jour. Pharmacol., 21, 127, (1963). The measure of effectiveness of the compounds in this test is given by their ability in reducing the volume of the hind paws of the laboratory animals. […] The obtained results, which are summarized in the following table, were obtained by testing the compounds at a dosage corresponding to 1/5 of their LD50.

In general, LD50 refers to the dose at which mortality reaches 50%. A high value points to a less toxic substance. On to `CNc1cc(OC)cc2c1CC(C)O2` (stereo not drawn) [Example 11, 2,3-dihydro-6-methoxy-N,2-dimethyl-4-benzofuranamine], for which, in series [1], the LD50 came out at 2800 mg/kg. For the same molecule, in series [2], the “reduction of the carrageenin induced edema over the controls” value is reported as “around 70%”. The “reduction of the weight of the granuloma over the controls” value in series [3] is given as “more than 40%”. Also, the “% reduction of the volume of the hind paws over the controls” value in series [4] came to 36%. Further, in series [4] (rats, dosage corresponding to 1/5 of their LD50), the “activity in the adjuvant induced arthritis test compared with acetylsalicylic acid” value is “significantly more active”.

Take `CC(=O)Oc1ccccc1C(=O)O` [acetylsalicylic acid, reference compound]: the “% reduction of the volume of the hind paws over the controls” value in series [4] is recorded as 25%.
